# Measurements as given in ChEMBL document CHEMBL1201861, “Genomics of Drug Sensitity in Cancer screening data, Wellcome Trust Sanger Institute”.
# Legend:
# Test in all cases: cells
# [1] = test system: GOTO; assay type: functional, cell-based, Homo sapiens; conditions: Homo sapiens, GOTO;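 further: growth inhibition of GOTO cells, read out by a cell viability assay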
# Description: SANGER: Inhibition of human GOTO cell growth in a cell viability assay.
# [2] = test system: NCI-H1770; assay type: functional, cell-based, Homo sapiens; conditions: Homo sapiens, NCI-H1770;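 further: growth inhibition of NCI-H1770 cells determined with a viability readout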
# Description: SANGER: Inhibition of human NCI-H1770 cell growth in a cell viability assay.
# [3] = test system: Calu-6; assay type: functional, cell-based, Homo sapiens; conditions: Homo sapiens, Calu-6;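 further: growth of human Calu-6 cells, read out by a cell viability assay, IC50 marking inhibition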
# Description: SANGER: Inhibition of human Calu-6 cell growth in a cell viability assay.
# [4] = test system: NB69; assay type: functional, cell-based, Homo sapiens; conditions: Homo sapiens, NB69;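 further: growth inhibition of NB69 cells, determined by a cell viability assay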
# Description: SANGER: Inhibition of human NB69 cell growth in a cell viability assay.
# [5] = test system: NEC8; assay type: functional, cell-based, Homo sapiens; conditions: Homo sapiens, NEC8;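 further: growth inhibition of human NEC8 cells, read out by a cell viability assay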
# Description: SANGER: Inhibition of human NEC8 cell growth in a cell viability assay.
# [6] = test system: LU-139; assay type: functional, cell-based, Homo sapiens; conditions: Homo sapiens, LU-139
# Description: SANGER: Inhibition of human LU-139 cell growth in a cell viability assay.
# [7] = test system: EW-3; assay type: functional, cell-based, Homo sapiens; conditions: Homo sapiens, EW-3;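 further: cell viability assay read-out, IC50 reflects inhibition of growth of the EW-3 cells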
# Description: SANGER: Inhibition of human EW-3 cell growth in a cell viability assay.
# [8] = test system: GCIY; assay type: functional, cell-based, Homo sapiens; conditions: Homo sapiens, GCIY;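 further: growth inhibition of the human GCIY cell line, read out by a cell viability assay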
# Description: SANGER: Inhibition of human GCIY cell growth in a cell viability assay.
# [9] = test system: AM-38; assay type: functional, cell-based, Homo sapiens; conditions: Homo sapiens, AM-38;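 further: growth inhibition of AM-38 cells of human origin, read out by a cell viability assay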
# Description: SANGER: Inhibition of human AM-38 cell growth in a cell viability assay.
# [10] = test system: NB10; assay type: functional, cell-based, Homo sapiens; conditions: Homo sapiens, NB10;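 further: growth inhibition of NB10 cells, read out by a cell viability assay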
# Description: SANGER: Inhibition of human NB10 cell growth in a cell viability assay.
# [11] = test system: BE-13; assay type: functional, cell-based, Homo sapiens; conditions: Homo sapiens, BE-13;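 further: growth inhibition of human BE-13 cells, measured with a cell viability assay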
# Description: SANGER: Inhibition of human BE-13 cell growth in a cell viability assay.
# [12] = test system: ES8; assay type: functional, cell-based, Homo sapiens; conditions: Homo sapiens, ES8;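 further: growth inhibition of human ES8 cells, read out with a cell viability assay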
# Description: SANGER: Inhibition of human ES8 cell growth in a cell viability assay.
# [13] = test system: NCI-H1650; assay type: functional, cell-based, Homo sapiens; conditions: Homo sapiens, NCI-H1650;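 further: growth inhibition of human NCI-H1650 cells measured by a cell viability assay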
# Description: SANGER: Inhibition of human NCI-H1650 cell growth in a cell viability assay.
# [14] = test system: TE-12; assay type: functional, cell-based, Homo sapiens; conditions: Homo sapiens, TE-12;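 further: growth inhibition of TE-12 cells, read out by a cell viability assay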
# Description: SANGER: Inhibition of human TE-12 cell growth in a cell viability assay.
# [15] = test system: NCI-H1299; assay type: functional, cell-based, Homo sapiens; conditions: Homo sapiens, NCI-H1299;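 further: growth inhibition of human NCI-H1299 cells, read out by a cell viability assay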
# Description: SANGER: Inhibition of human NCI-H1299 cell growth in a cell viability assay.
# [16] = test system: CTV-1; assay type: functional, cell-based, Homo sapiens; conditions: Homo sapiens, CTV-1;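 further: growth inhibition of the cell line, read out with a cell viability assay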
# Description: SANGER: Inhibition of human CTV-1 cell growth in a cell viability assay.
# [17] = test system: LB1047-RCC; assay type: functional, cell-based, Homo sapiens; conditions: Homo sapiens, LB1047-RCC;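 further: inhibition of cell growth, determined with a cell viability assay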
# Description: SANGER: Inhibition of human LB1047-RCC cell growth in a cell viability assay.
# [18] = test system: L-428; assay type: functional, cell-based, Homo sapiens; conditions: Homo sapiens, L-428
# Description: SANGER: Inhibition of human L-428 cell growth in a cell viability assay.
# [19] = test system: SHP77; assay type: functional, cell-based, Homo sapiens, SHP-77; conditions: Homo sapiens, SHP77;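 further: growth inhibition of human SHP-77 cells measured by a cell viability assay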
# Description: SANGER: Inhibition of human SHP-77 cell growth in a cell viability assay.
# [20] = test system: NCI-H2126; assay type: functional, cell-based, Homo sapiens; conditions: Homo sapiens, NCI-H2126;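 further: growth inhibition of the cancer cell line, determined with a cell viability readout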
# Description: SANGER: Inhibition of human NCI-H2126 cell growth in a cell viability assay.
# [21] = test system: Lu-65; assay type: functional, cell-based, Homo sapiens; conditions: Homo sapiens, Lu-65;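 further: growth inhibition of Lu-65 cancer cells, read out by a cell viability assay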
# Description: SANGER: Inhibition of human LU-65 cell growth in a cell viability assay.
# [22] = test system: NB13; assay type: functional, cell-based, Homo sapiens; conditions: Homo sapiens, NB13;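 further: cell viability readout measuring growth inhibition of human NB13 cells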
# Description: SANGER: Inhibition of human NB13 cell growth in a cell viability assay.
# [23] = test system: ATN-1; assay type: functional, cell-based, Homo sapiens; conditions: Homo sapiens, ATN-1;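 further: growth inhibition of human ATN-1 cells, read out with a cell viability assay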
# Description: SANGER: Inhibition of human ATN-1 cell growth in a cell viability assay.
# [24] = test system: GI-1; assay type: functional, cell-based, Homo sapiens; conditions: Homo sapiens, GI-1;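 further: growth inhibition of human GI-1 cells, measured with a cell viability readout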
# Description: SANGER: Inhibition of human GI-1 cell growth in a cell viability assay.
# [25] = test system: SK-MEL-1; assay type: functional, cell-based, Homo sapiens; conditions: Homo sapiens, SK-MEL-1;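 further: growth inhibition of human SK-MEL-1 cells, read out by a cell viability assay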
# Description: SANGER: Inhibition of human SK-MEL-1 cell growth in a cell viability assay.
# [26] = test system: D-502MG; assay type: functional, cell-based, Homo sapiens; conditions: Homo sapiens, D-502MG
# Description: SANGER: Inhibition of human D-502MG cell growth in a cell viability assay.
# [27] = test system: MZ1-PC; assay type: functional, cell-based, Homo sapiens; conditions: Homo sapiens, MZ1-PC;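 further: cell viability assay measuring growth inhibition of human MZ1-PC cells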
# Description: SANGER: Inhibition of human MZ1-PC cell growth in a cell viability assay.
# [28] = test system: HCE-4; assay type: functional, cell-based, Homo sapiens; conditions: Homo sapiens, HCE-4;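 further: cell viability assay measuring inhibition of growth in the human HCE-4 cell line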
# Description: SANGER: Inhibition of human HCE-4 cell growth in a cell viability assay.
# [29] = test system: BV-173; assay type: functional, cell-based, Homo sapiens; conditions: Homo sapiens, BV-173
# Description: SANGER: Inhibition of human BV-173 cell growth in a cell viability assay.
# [30] = test system: Becker; assay type: functional, cell-based, Homo sapiens; conditions: Homo sapiens, Becker;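 further: growth inhibition of Becker cells, read out with a cell viability assay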
# Description: SANGER: Inhibition of human Becker cell growth in a cell viability assay.
# [31] = test system: HEL; assay type: functional, cell-based, Homo sapiens; conditions: Homo sapiens, HEL;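 further: growth inhibition of HEL cells, read out with a cell viability assay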
# Description: SANGER: Inhibition of human HEL cell growth in a cell viability assay.
# [32] = test system: NCI-N87; assay type: functional, cell-based, Homo sapiens; conditions: Homo sapiens, NCI-N87;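 further: growth inhibition of human NCI-N87 cells, read out with a cell viability assay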
# Description: SANGER: Inhibition of human NCI-N87 cell growth in a cell viability assay.
# [33] = test system: NCI-H209; assay type: functional, cell-based, Homo sapiens; conditions: Homo sapiens, NCI-H209;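 further: growth inhibition of human NCI-H209 cells, measured by a cell viability assay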
# Description: SANGER: Inhibition of human NCI-H209 cell growth in a cell viability assay.
# [34] = test system: RCC10RGB; assay type: functional, cell-based, Homo sapiens; conditions: Homo sapiens, RCC10RGB;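 further: growth inhibition of human RCC10RGB cells, read out by a cell viability assay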
# Description: SANGER: Inhibition of human RCC10RGB cell growth in a cell viability assay.
# [35] = test system: NCI-H226; assay type: functional, cell-based, Homo sapiens; conditions: Homo sapiens, NCI-H226;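 further: cell viability read-out used to gauge growth inhibition of the cells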
# Description: SANGER: Inhibition of human NCI-H226 cell growth in a cell viability assay.
# [36] = test system: GT3TKB; assay type: functional, cell-based, Homo sapiens; conditions: Homo sapiens, GT3TKB;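 further: growth inhibition of the cell line, read out with a cell viability assay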
# Description: SANGER: Inhibition of human GT3TKB cell growth in a cell viability assay.
# [37] = test system: COLO-800; assay type: functional, cell-based, Homo sapiens; conditions: Homo sapiens, COLO-800;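 further: growth inhibition of COLO-800 cells, read out with a cell viability assay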
# Description: SANGER: Inhibition of human COLO-800 cell growth in a cell viability assay.
# [38] = test system: ETK-1; assay type: functional, cell-based, Homo sapiens; conditions: Homo sapiens, ETK-1;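 further: growth inhibition of human ETK-1 cells, read out with a cell viability assay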
# Description: SANGER: Inhibition of human ETK-1 cell growth in a cell viability assay.
# [39] = test system: ML-2; assay type: functional, cell-based, Homo sapiens; conditions: Homo sapiens, ML-2;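 further: growth inhibition of ML-2 cells, measured with a cell viability readout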
# Description: SANGER: Inhibition of human ML-2 cell growth in a cell viability assay.
# [40] = test system: KLE; assay type: functional, cell-based, Homo sapiens; conditions: Homo sapiens, KLE;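 further: growth inhibition of human KLE cells, read out with a cell viability assay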
# Description: SANGER: Inhibition of human KLE cell growth in a cell viability assay.
# [41] = test system: SF-126; assay type: functional, cell-based, Homo sapiens; conditions: Homo sapiens, SF-126;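 further: growth inhibition of human SF126 cells, read out with a cell viability assay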
# Description: SANGER: Inhibition of human SF126 cell growth in a cell viability assay.
# [42] = test system: A4-Fuk; assay type: functional, cell-based, Homo sapiens; conditions: Homo sapiens, A4-Fuk;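 further: growth inhibition of A4-Fuk cells, read out by a cell viability assay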
# Description: SANGER: Inhibition of human A4-Fuk cell growth in a cell viability assay.
# [43] = test system: HCE-T; assay type: functional, cell-based, Homo sapiens; conditions: Homo sapiens, HCE-T;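 further: cell viability assay read-out, reporting inhibition of HCE-T cell growth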
# Description: SANGER: Inhibition of human HCE-T cell growth in a cell viability assay.
# [44] = test system: ES6; assay type: functional, cell-based, Homo sapiens; conditions: Homo sapiens, ES6;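 further: growth inhibition of human ES6 cells, read out with a cell viability assay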
# Description: SANGER: Inhibition of human ES6 cell growth in a cell viability assay.
# [45] = test system: HCC2157; assay type: functional, cell-based, Homo sapiens; conditions: Homo sapiens, HCC2157;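 further: growth inhibition of the cancer cell line, read out as cell viability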
# Description: SANGER: Inhibition of human HCC2157 cell growth in a cell viability assay.
# [46] = test system: NCI-H446; assay type: functional, cell-based, Homo sapiens; conditions: Homo sapiens, NCI-H446;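 further: growth inhibition of NCI-H446 cells determined by a cell viability assay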
# Description: SANGER: Inhibition of human NCI-H446 cell growth in a cell viability assay.
# [47] = test system: KP-N-YS; assay type: functional, cell-based, Homo sapiens; conditions: Homo sapiens, KP-N-YS;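 further: cell viability assay measuring inhibition of cell line growth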
# Description: SANGER: Inhibition of human KP-N-YS cell growth in a cell viability assay.
# [48] = test system: EW-1; assay type: functional, cell-based, Homo sapiens; conditions: Homo sapiens, EW-1;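 further: growth inhibition of the human EW-1 cell line, read out by a cell viability assay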
# Description: SANGER: Inhibition of human EW-1 cell growth in a cell viability assay.
# [49] = test system: SCH; assay type: functional, cell-based, Homo sapiens; conditions: Homo sapiens, SCH;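 further: growth inhibition of human SCH cells, read out in a cell viability assay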
# Description: SANGER: Inhibition of human SCH cell growth in a cell viability assay.
# [50] = test system: SK-LMS-1; assay type: functional, cell-based, Homo sapiens; conditions: Homo sapiens, SK-LMS-1;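 further: growth inhibition of human SK-LMS-1 cells, read out with a cell viability assay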
# Description: SANGER: Inhibition of human SK-LMS-1 cell growth in a cell viability assay.
smiles,measurement,setting,value
CCN(CC)CCCCNc1ncc2cc(-c3cc(OC)cc(OC)c3)c(NC(=O)NC(C)(C)C)nc2n1 [PD-173074],IC50,[1],> 2 µM
same,IC50,[2],> 2 µM
same,IC50,[3],> 2 µM
same,IC50,[4],> 2 µM
same,IC50,[5],0.563 µM
same,IC50,[6],> 2 µM
same,IC50,[7],> 2 µM
same,IC50,[8],> 2 µM
same,IC50,[9],> 2 µM
same,IC50,[10],> 2 µM
same,IC50,[11],> 2 µM
same,IC50,[12],> 2 µM
same,IC50,[13],> 2 µM
same,IC50,[14],> 2 µM
same,IC50,[15],> 2 µM
same,IC50,[16],> 2 µM
same,IC50,[17],> 2 µM
same,IC50,[18],> 2 µM
same,IC50,[19],> 2 µM
same,IC50,[20],> 2 µM
same,IC50,[21],> 2 µM
same,IC50,[22],> 2 µM
same,IC50,[23],> 2 µM
same,IC50,[24],> 2 µM
same,IC50,[25],> 2 µM
same,IC50,[26],> 2 µM
same,IC50,[27],> 2 µM
same,IC50,[28],> 2 µM
same,IC50,[29],0.846 µM
same,IC50,[30],> 2 µM
same,IC50,[31],> 2 µM
same,IC50,[32],> 2 µM
same,IC50,[33],> 2 µM
same,IC50,[34],> 2 µM
same,IC50,[35],> 2 µM
same,IC50,[36],> 2 µM
same,IC50,[37],> 2 µM
same,IC50,[38],> 2 µM
same,IC50,[39],> 2 µM
same,IC50,[40],> 2 µM
same,IC50,[41],> 2 µM
same,IC50,[42],> 2 µM
same,IC50,[43],> 2 µM
same,IC50,[44],> 2 µM
same,IC50,[45],> 2 µM
same,IC50,[46],> 2 µM
same,IC50,[47],> 2 µM
same,IC50,[48],> 2 µM
same,IC50,[49],> 2 µM
Cn1cnc2c(F)c(Nc3ccc(Br)cc3Cl)c(C(=O)NOCCO)cc21 [SELUMETINIB],IC50,[1],> 4 µM
same,IC50,[2],> 4 µM
same,IC50,[3],> 4 µM
same,IC50,[4],1.05 µM
same,IC50,[5],> 4 µM
same,IC50,[6],> 4 µM
same,IC50,[7],2.93 µM
same,IC50,[8],> 4 µM
same,IC50,[9],> 4 µM
same,IC50,[10],> 4 µM
same,IC50,[11],> 4 µM
same,IC50,[12],> 4 µM
same,IC50,[13],> 4 µM
same,IC50,[14],> 4 µM
same,IC50,[15],> 4 µM
same,IC50,[16],> 4 µM
same,IC50,[17],> 4 µM
same,IC50,[18],> 4 µM
same,IC50,[19],> 4 µM
same,IC50,[21],> 4 µM
same,IC50,[22],> 4 µM
same,IC50,[23],> 4 µM
same,IC50,[24],> 4 µM
same,IC50,[25],> 4 µM
same,IC50,[26],> 4 µM
same,IC50,[27],3.32 µM
same,IC50,[28],> 4 µM
same,IC50,[29],0.748 µM
same,IC50,[30],> 4 µM
same,IC50,[31],> 4 µM
same,IC50,[32],> 4 µM
same,IC50,[33],> 4 µM
same,IC50,[34],> 4 µM
same,IC50,[35],> 4 µM
same,IC50,[36],> 4 µM
same,IC50,[37],> 4 µM
same,IC50,[38],> 4 µM
same,IC50,[39],0.294 µM
same,IC50,[40],> 4 µM
same,IC50,[41],> 4 µM
same,IC50,[42],> 4 µM
same,IC50,[43],0.971 µM
same,IC50,[44],> 4 µM
same,IC50,[45],> 4 µM
same,IC50,[46],> 4 µM
same,IC50,[47],> 4 µM
same,IC50,[48],> 4 µM
same,IC50,[49],> 4 µM
CO[C@H]1C[C@@H]2CC[C@@H](C)[C@@](O)(O2)C(=O)C(=O)N2CCCC[C@H]2C(=O)O[C@H]([C@H](C)C[C@@H]2CC[C@@H](OC(=O)C(C)(CO)CO)[C@H](OC)C2)CC(=O)[C@H](C)/C=C(\C)[C@@H](O)[C@@H](OC)C(=O)[C@H](C)C[C@H](C)/C=C/C=C/C=C/1C [TEMSIROLIMUS],IC50,[1],> 0.2 µM
same,IC50,[2],> 0.2 µM
same,IC50,[3],> 0.2 µM
same,IC50,[4],0.00946 µM
same,IC50,[5],> 0.2 µM
same,IC50,[6],0.0533 µM
same,IC50,[7],0.0492 µM
same,IC50,[8],> 0.2 µM
same,IC50,[50],> 0.2 µM
same,IC50,[9],> 0.2 µM
same,IC50,[10],> 0.2 µM
same,IC50,[11],0.00491 µM
same,IC50,[12],0.00527 µM
same,IC50,[13],> 0.2 µM
same,IC50,[14],> 0.2 µM
same,IC50,[15],0.186 µM
same,IC50,[16],> 0.2 µM
same,IC50,[17],0.0631 µM
same,IC50,[18],> 0.2 µM
same,IC50,[19],> 0.2 µM
same,IC50,[20],0.058 µM
same,IC50,[21],> 0.2 µM
same,IC50,[22],> 0.2 µM
same,IC50,[23],> 0.2 µM
same,IC50,[24],0.107 µM
same,IC50,[25],> 0.2 µM
same,IC50,[26],> 0.2 µM
same,IC50,[27],> 0.2 µM
same,IC50,[28],> 0.2 µM
same,IC50,[29],0.0438 µM
same,IC50,[30],0.0799 µM
same,IC50,[31],0.158 µM
same,IC50,[32],0.175 µM
same,IC50,[33],0.153 µM
same,IC50,[34],> 0.2 µM
same,IC50,[35],> 0.2 µM
same,IC50,[36],0.0906 µM
same,IC50,[37],0.129 µM
same,IC50,[38],0.0318 µM
same,IC50,[39],> 0.2 µM
same,IC50,[40],> 0.2 µM
same,IC50,[41],0.0229 µM
same,IC50,[42],0.0818 µM
same,IC50,[43],0.0492 µM
same,IC50,[44],> 0.2 µM
same,IC50,[46],> 0.2 µM
same,IC50,[47],> 0.2 µM
same,IC50,[48],> 0.2 µM
same,IC50,[49],> 0.2 µM
Nc1cccc2c1CN(C1CCC(=O)NC1=O)C2=O (stereo not given) [LENALIDOMIDE],IC50,[1],> 5 µM
same,IC50,[2],> 5 µM
same,IC50,[3],> 5 µM
same,IC50,[4],> 5 µM
same,IC50,[5],> 5 µM
same,IC50,[6],> 5 µM
same,IC50,[7],> 5 µM
same,IC50,[8],> 5 µM
same,IC50,[50],> 5 µM
same,IC50,[9],> 5 µM
same,IC50,[10],> 5 µM
same,IC50,[11],> 5 µM
same,IC50,[12],> 5 µM
same,IC50,[13],> 5 µM
same,IC50,[14],> 5 µM
same,IC50,[15],> 5 µM
same,IC50,[16],> 5 µM
same,IC50,[17],> 5 µM
same,IC50,[18],> 5 µM
same,IC50,[19],> 5 µM
same,IC50,[20],> 5 µM
same,IC50,[21],> 5 µM
same,IC50,[22],> 5 µM
same,IC50,[23],> 5 µM
same,IC50,[24],> 5 µM
same,IC50,[25],> 5 µM
same,IC50,[26],> 5 µM
same,IC50,[27],> 5 µM
same,IC50,[28],> 5 µM
same,IC50,[29],> 5 µM
same,IC50,[30],> 5 µM
same,IC50,[31],> 5 µM
same,IC50,[32],> 5 µM
same,IC50,[33],> 5 µM
same,IC50,[34],> 5 µM
same,IC50,[35],> 5 µM
same,IC50,[36],> 5 µM
same,IC50,[37],> 5 µM
same,IC50,[38],> 5 µM
same,IC50,[39],> 5 µM
same,IC50,[40],> 5 µM
same,IC50,[41],> 5 µM
same,IC50,[42],> 5 µM
same,IC50,[43],> 5 µM
same,IC50,[44],> 5 µM
same,IC50,[46],> 5 µM
same,IC50,[47],> 5 µM
same,IC50,[48],> 5 µM
same,IC50,[49],> 5 µM
